Experimental data published in PMC12024213, “Mechanism Insight of Cell Death Signaling by Thymol Derivatives on Trypanosomatidae Protozoan Parasites” (Antibiotics, 2025).

Experiments:
T. cruzi [1] = experiment: Atomic force microscopy, T. cruzi; assay type: cell-based, Trypanosoma cruzi; conditions: IC90, 12 and 24 h
Procedure: (§1) […] After incubation, cells were washed twice with PBS, and 10 µL of a 10^5 cells/mL suspension was smeared onto glass slides. Prior to AFM analysis, samples were dried for 10 min. AFM topographic images were acquired in Peak Force mode using a multimode microscope equipped with a Nanoscope V control unit (Bruker). Scans were performed at rates of 0.5–1.2 Hz, employing FESP tips (50–100 kHz, 1–5 N/m) from Bruker. The damage caused by derivative 9 in both parasites was assessed by recording images at scales ranging from 100 µm × 100 µm to 0.6 µm × 0.6 µm, with a resolution of 512 points per line.

[2] = Intramacrophagic stage assay, L. amazonensis in J774.A1 macrophages; assay type: cell-based, Leishmania amazonensis; conditions: mouse; CC50 J774.A1 / IC50 intracellular L. amazonensis; read-out: Selectivity Leishmania SI (CC50/IC50)
Procedure: (§2) Briefly, in a 96-well plate, macrophages from the J774.A1 cell line were seeded at a final concentration of 2 × 10^5 cells/mL in Dulbecco’s Modified Eagle Medium (DMEM) and maintained at 37 °C in a 5% CO2 atmosphere until fully adhesion. […] After infection, plates were washed using DMEM to eliminate external parasites. Subsequently, infected macrophages were treated with different concentrations of active compounds for 24 h. Later, macrophages were lysed using 30 μL of medium, Schneider for Leishmania, and in liver infusion tryptose for Trypanosoma, containing 0.05% of sodium dodecyl sulfate (SDS) for 30 s under agitation. Afterwards, 170 μL of the appropriated medium was derivatives added to each well to give a final volume of 200 μL. Subsequently, 10% of alamarBlue® was added into each well and the plate was incubated at 26 °C for 72 h. Cytotoxicity effect of the tested derivatives was conducted using macrophages of the murine cell line J774.A1 (American Type Culture Collection #TIB-67, city, country), as previously described. The cells were maintained in DMEM at 37 °C in a 5% CO2 humidified incubator.

[3] = test system: intramacrophage L. amazonensis; experiment: as above; assay type: cell-based, Leishmania amazonensis; conditions: Leishmania amazonensis; intramacrophage stage in J774.A1, 24 h treatment; mean ± SD; read-out: L. amazonensis Intracellular IC50
Procedure: as §2

T. cruzi epimastigotes = experiment: Mitochondrial membrane potential, JC-1, T. cruzi; assay type: cell-based, Trypanosoma cruzi; conditions: JC-1 red/green ratio, IC90, 24 h
Procedure: The measurement of mitochondrial membrane potential was carried out using the JC-1 assay. JC-1 is a mitochondria-specific stain whose fluorescence emission depends on the mitochondrial membrane potential. In healthy mitochondria, JC-1 aggregates and emits red fluorescence, whereas in unhealthy mitochondria, it remains in monomeric form and emits green fluorescence. […] The assay was performed according to the manufacturer’s instructions, as detailed in a previous study.

L. amazonensis [4] = experiment: Atomic force microscopy, L. amazonensis; assay type: cell-based, Leishmania amazonensis; conditions: IC90, 12 and 24 h
Procedure: as §1

T. cruzi [5] = experiment: Intracellular ROS, CellROX Deep Red, T. cruzi; assay type: cell-based, Trypanosoma cruzi; conditions: 24 h incubation
Procedure: (§3) The measure of reactive oxygen species (ROS) was measured after treatment of 24 h using CellROX® Deep Red fluorescent probe (Invitrogen, Madrid, Spain). The mitochondria constitute an essential organelle to neutralize the reactive oxygen species; the malfunction of this organelle would generate an imbalance between the antioxidants and the reactive oxygen.

L. amazonensis [6] = experiment: Intracellular ROS, CellROX Deep Red, L. amazonensis; assay type: cell-based, Leishmania amazonensis; conditions: 24 h incubation
Procedure: as §3

T. cruzi [7] = test system: T. cruzi
Procedure: (§4) The effect of derivatives 9 and 10 to modulate cell features was studied in the tested protozoa parasites, using various specific commercial kits. Parasite cells were incubated with the derivative at the previously calculated IC90 for 24 h. Subsequently, cells were washed and submitted to different treatments as mentioned by the manufacturer’s instructions. In all the assays, a plate reader EnSpire Multimode Plate Reader® and/or an image base system fluorescence microscope EVOS M5000 were used for the fluorescence intensity quantification. For each protocol, images of representative population cells were obtained using an inverted confocal microscope Leica DMI 4000 B with LAS X software, and Leica HC PL APO 63×/1.40 OIL CS2 Objective (Barcelona, Spain). The SYTOX™ Green (Life Technologies, Madrid, Spain), a cell impermeable DNA binding stain, was used to evaluate the membrane permeability and integrity. The assay was conducted as detailed in the manufacture instructions, and as previously described.

L. amazonensis [8] = test system: L. amazonensis
Procedure: as §4

Compound | morphological effects (AFM) (T. cruzi [1]) | selectivity ratio [2] | IC50 [3] [µM] | decrease of mitochondrial membrane potential (ΔΨm) (T. cruzi epimastigotes) [%] | morphological effects (AFM) (L. amazonensis [4]) | intracellular ROS (CellROX Deep Red) (T. cruzi [5]) | intracellular ROS (CellROX Deep Red) (L. amazonensis [6]) | plasma membrane permeability (SYTOX Green) (T. cruzi [7]) | plasma membrane permeability (SYTOX Green) (L. amazonensis [8])
COc1ccc(C(=O)Oc2cc(C)ccc2C(C)C)cc1 [Derivative 9, thymyl anysoate] | induced the formation of giant vacuoles in the cytoplasm | > 19.7 | 15.2 ± 0.8 | 70 | induced the formation of giant vacuoles in the cytoplasm | induced oxidative stress | induced oxidative stress | – | –
Cc1ccc(C(C)C)c(OC(=O)c2ccccn2)c1 [Derivative 10, thymyl picolinate] | – | 10.1 | 25.3 ± 0.8 | – | – | – | – | greater damage to membrane permeability | greater damage to membrane permeability
